# According to US4496543A, “Polypeptides, processes for their production, pharmaceutical compositions comprising said polypeptides and their use” (Sandoz Ltd., priority 1982, dated 1985):
# System: serum GH-level
# Experiment: TEST I: depression of serum GH-levels in the rat (GH-secretion inhibiting activity)
# Format: in vivo
# Settings: male rats under Nembutal narcosis, s.c., activity at 60 minutes, serum GH by radio-immuno-assay
# Description: This test (TEST I) is carried out employing male rats under Nembutal narcosis. The test-substance is administered at varying, logarithmically staggered doses employing at least 4 rats per dose. The rats are decapitated 60 minutes after administration, the blood is collected and the serum GH-level determined by radio-immuno-assay.
# The above test may be adapted to determine effectiveness over prolonged periods of time, e.g. by decapitating 6 or 18 hours after administration. "Polypeptides of Type-T" as hereinbefore defined may be shown to be active in the above described test method when administered at dosages in the aforesaid range, over longer periods of time, e.g. up to 18 hours.
smiles,measurement,value
C[C@H](N)C(=O)NCC(=O)N[C@H]1CSSC[C@@H](C(=O)O)NC(=O)[C@H](CO)NC(=O)[C@H]([C@@H](C)O)NC(=O)[C@H](Cc2ccccc2)NC(=O)[C@H]([C@@H](C)O)NC(=O)[C@H](CCCCN)NC(=O)[C@H](Cc2c[nH]c3ccccc23)NC(=O)[C@H](Cc2ccccc2)NC(=O)[C@H](Cc2ccccc2)NC(=O)[C@H](CC(N)=O)NC(=O)[C@H](CCCCN)NC1=O [somatostatin],ID50 in TEST I (amount of compound required to effect 50% reduction of the GH-level compared with untreated controls),0.093 mg/kg
